One block for each compound: values may come before it.
Key:
Androgen receptor = target: T1, Androgen receptor (Homo sapiens, UniProt P10275); assay: Induction of AR degradation in human HeLa cells; format: cell-based
T1 sequence (P10275 whole entry): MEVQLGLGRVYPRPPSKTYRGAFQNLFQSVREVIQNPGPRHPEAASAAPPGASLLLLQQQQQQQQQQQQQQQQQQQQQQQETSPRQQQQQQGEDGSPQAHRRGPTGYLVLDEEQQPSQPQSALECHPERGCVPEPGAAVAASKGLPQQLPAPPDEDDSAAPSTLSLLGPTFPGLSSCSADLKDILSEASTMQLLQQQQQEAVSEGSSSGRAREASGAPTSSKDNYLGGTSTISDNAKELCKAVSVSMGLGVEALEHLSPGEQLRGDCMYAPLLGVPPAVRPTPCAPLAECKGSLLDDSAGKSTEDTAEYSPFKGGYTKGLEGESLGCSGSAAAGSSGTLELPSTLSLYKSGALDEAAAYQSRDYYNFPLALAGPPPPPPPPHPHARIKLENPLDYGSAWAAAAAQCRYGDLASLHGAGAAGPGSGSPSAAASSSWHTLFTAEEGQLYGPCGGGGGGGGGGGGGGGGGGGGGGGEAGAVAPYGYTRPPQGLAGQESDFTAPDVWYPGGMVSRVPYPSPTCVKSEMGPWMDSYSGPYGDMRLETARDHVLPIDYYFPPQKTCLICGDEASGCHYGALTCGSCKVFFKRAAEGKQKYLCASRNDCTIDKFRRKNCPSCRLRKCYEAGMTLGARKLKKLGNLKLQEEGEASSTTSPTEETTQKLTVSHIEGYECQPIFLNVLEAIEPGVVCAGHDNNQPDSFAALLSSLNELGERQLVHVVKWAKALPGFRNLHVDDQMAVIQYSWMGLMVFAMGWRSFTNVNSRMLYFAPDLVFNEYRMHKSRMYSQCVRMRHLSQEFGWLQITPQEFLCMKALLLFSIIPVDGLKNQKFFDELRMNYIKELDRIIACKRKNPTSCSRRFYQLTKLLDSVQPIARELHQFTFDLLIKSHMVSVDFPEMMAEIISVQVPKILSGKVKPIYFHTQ

[1] = target: T2, von Hippel-Lindau disease tumor suppressor/Bromodomain-containing protein 4 (Homo sapiens, UniProt O60885+P40337); assay: Protac activity at VHL/BRD4 in human HeLa cells assessed as BRD4 degradation at 1 uM by Western blot analysis relative to control; format: cell-based
T2 sequence (P40337 whole entry, looked up, other chains not shown): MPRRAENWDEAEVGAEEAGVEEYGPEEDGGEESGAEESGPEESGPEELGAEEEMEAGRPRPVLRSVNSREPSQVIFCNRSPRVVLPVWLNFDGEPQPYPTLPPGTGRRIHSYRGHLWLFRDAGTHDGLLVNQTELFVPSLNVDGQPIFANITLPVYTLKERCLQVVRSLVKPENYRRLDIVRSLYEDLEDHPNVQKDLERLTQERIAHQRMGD

[2] = target: Bromodomain-containing protein 4 (Homo sapiens) (UniProt O60885); assay: Induction of BRD4 degradation in human HeLa cells assessed as maximum efficacy at 1 uM relative to control; format: cell-based
[3] = target: T2, von Hippel-Lindau disease tumor suppressor/Bromodomain-containing protein 4; assay: Protac activity at VHL/BRD4 in human HeLa cells assessed as BRD4 degradation by Western blot analysis relative to control; format: cell-based
[4] = target: T2, von Hippel-Lindau disease tumor suppressor/Bromodomain-containing protein 4; assay: Protac activity at BRD4/VHL (unknown origin) assessed as maximum efficacy relative to control
[5] = target: T3, Bromodomain-containing protein 2 (Homo sapiens, UniProt P25440); assay: Induction of BRD2 degradation (unknown origin)
[6] = target: T3, Bromodomain-containing protein 2; assay: Induction of BRD2 degradation (unknown origin) relative to control
[7] = target: T4, Androgen receptor (Homo sapiens) (UniProt P10275); assay: Induction of AR degradation in human HeLa cells assessed as maximum efficacy at 100 nM relative to control; format: cell-based
T4 sequence (whole entry): T1 sequence (P10275 whole entry)

Estrogen receptor = target: T5, Estrogen receptor (Homo sapiens, UniProt P03372); assay: Induction of estrogen receptor degradation in human MCF7; format: cell-based
T5 sequence (P03372 whole entry): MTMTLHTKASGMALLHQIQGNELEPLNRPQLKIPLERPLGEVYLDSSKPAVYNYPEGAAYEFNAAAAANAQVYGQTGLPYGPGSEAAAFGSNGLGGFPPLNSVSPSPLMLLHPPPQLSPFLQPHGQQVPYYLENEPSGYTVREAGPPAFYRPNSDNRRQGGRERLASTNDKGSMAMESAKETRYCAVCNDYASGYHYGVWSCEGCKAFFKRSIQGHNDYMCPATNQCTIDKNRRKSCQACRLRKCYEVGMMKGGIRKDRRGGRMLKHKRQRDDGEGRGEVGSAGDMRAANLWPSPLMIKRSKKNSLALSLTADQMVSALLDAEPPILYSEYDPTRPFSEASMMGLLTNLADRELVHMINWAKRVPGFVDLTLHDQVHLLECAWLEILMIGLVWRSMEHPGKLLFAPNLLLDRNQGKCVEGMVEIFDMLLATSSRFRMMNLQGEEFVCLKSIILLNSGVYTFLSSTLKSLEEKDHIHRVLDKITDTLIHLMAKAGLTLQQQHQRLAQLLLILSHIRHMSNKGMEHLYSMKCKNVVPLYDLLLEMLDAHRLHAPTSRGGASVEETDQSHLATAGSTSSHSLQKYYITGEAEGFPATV

[8] = target: T6, Estrogen receptor (Homo sapiens) (UniProt P03372); assay: Induction of estrogen receptor degradation in human MCF7 cells assessed as maximum efficacy relative to control; format: cell-based
T6 sequence (whole entry): T5 sequence (P03372 whole entry)

MV4-11 = assay: Antiproliferative activity against human MV4-11 cells assessed as growth inhibition; format: functional, cell-based
[9] = target: T7, von Hippel-Lindau disease tumor suppressor/SWI/SNF-related matrix-associated actin-dependent regulator of chromatin subfamily A member 2 (Homo sapiens, UniProt P51531+P40337); assay: PROTAC activity at SMARCA2/VHL in human MV4-11 cells assessed as degradation of SMARCA2 by Western blot analysis; format: cell-based
Target sequence in this assay (P51531 whole entry): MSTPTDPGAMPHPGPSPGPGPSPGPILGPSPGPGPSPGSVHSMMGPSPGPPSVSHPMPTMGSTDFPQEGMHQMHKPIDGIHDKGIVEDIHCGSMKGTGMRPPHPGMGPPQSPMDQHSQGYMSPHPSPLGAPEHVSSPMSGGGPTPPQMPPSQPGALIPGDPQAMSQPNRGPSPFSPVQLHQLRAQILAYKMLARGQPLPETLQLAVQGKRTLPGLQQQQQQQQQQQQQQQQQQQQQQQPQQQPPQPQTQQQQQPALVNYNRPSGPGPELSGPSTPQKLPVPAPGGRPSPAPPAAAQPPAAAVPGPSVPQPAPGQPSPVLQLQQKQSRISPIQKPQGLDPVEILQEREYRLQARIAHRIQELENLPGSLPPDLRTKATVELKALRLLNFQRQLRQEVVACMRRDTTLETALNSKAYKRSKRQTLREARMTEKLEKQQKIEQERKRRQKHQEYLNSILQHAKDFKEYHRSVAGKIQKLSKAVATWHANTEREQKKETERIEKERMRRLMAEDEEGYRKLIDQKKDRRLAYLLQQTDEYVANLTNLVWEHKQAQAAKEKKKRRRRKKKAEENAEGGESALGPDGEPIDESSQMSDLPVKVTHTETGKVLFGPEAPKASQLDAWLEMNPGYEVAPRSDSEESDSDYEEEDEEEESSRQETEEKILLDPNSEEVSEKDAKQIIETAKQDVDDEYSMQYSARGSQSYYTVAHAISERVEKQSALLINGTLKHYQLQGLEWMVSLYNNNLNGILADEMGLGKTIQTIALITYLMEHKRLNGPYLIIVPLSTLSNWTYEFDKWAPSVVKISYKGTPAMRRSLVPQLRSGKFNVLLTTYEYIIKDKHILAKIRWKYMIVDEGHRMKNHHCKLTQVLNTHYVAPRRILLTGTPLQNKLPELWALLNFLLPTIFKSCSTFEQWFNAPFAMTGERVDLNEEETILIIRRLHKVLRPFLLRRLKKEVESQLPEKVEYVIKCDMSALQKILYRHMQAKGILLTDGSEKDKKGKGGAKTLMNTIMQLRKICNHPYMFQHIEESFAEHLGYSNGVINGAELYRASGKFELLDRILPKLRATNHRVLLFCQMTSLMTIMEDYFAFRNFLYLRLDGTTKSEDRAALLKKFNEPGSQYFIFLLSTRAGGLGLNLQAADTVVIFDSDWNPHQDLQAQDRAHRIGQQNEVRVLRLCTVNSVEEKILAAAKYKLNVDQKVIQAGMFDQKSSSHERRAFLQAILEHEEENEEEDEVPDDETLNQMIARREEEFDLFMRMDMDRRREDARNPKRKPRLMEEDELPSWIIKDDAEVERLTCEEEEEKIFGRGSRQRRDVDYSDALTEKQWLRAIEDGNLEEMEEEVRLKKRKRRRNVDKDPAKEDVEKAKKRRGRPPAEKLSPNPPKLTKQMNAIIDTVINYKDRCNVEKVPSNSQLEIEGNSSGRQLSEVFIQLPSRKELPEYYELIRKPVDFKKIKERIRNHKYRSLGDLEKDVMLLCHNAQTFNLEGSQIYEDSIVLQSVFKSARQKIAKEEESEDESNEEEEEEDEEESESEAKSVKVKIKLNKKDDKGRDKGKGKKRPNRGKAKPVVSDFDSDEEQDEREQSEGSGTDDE
Target sequence in this assay (P40337 whole entry): as the sequence (P40337 whole entry, looked up, other chains not shown) above

[10] = target: T7, von Hippel-Lindau disease tumor suppressor/SWI/SNF-related matrix-associated actin-dependent regulator of chromatin subfamily A member 2; assay: PROTAC activity at SMARCA2/VHL in human MV4-11 cells assessed as degradation of SMARCA2 measured for 24 hrs by Western blot analysis; format: cell-based
Target sequence in this assay (P51531 whole entry): as the sequence (P51531 whole entry) above
Target sequence in this assay (P40337 whole entry): as the sequence (P40337 whole entry, looked up, other chains not shown) above

[11] = target: von Hippel-Lindau disease tumor suppressor/SWI/SNF-related matrix-associated actin-dependent regulator of chromatin subfamily A member 4 (Homo sapiens, UniProt P51532+P40337); assay: PROTAC activity at SMARCA4/VHL in human MV4-11 cells assessed as degradation of SMARCA4 measured for 24 hrs by Western blot analysis; format: cell-based
[12] = target: T7, von Hippel-Lindau disease tumor suppressor/SWI/SNF-related matrix-associated actin-dependent regulator of chromatin subfamily A member 2; assay: PROTAC activity at SMARCA2/VHL in human MV4-11 cells assessed as degradation of SMARCA2 measured for 24 hrs by Western blot analysis relative to control; format: cell-based
Target sequence in this assay (P40337 whole entry, looked up): as the sequence (P40337 whole entry, looked up, other chains not shown) above
Target sequence in this assay (P51531 whole entry, looked up): as the sequence (P51531 whole entry) above

[13] = target: von Hippel-Lindau disease tumor suppressor/Steroid hormone receptor ERR1 (Homo sapiens) (UniProt P11474+P40337); assay: Protac activity at VHL/ERRalpha in human MCF7 cells assessed as maximum efficacy relative to control; format: cell-based
Sequence of von Hippel-Lindau disease tumor suppressor/Steroid hormone receptor ERR1 (Homo sapiens) (P11474 whole entry, looked up): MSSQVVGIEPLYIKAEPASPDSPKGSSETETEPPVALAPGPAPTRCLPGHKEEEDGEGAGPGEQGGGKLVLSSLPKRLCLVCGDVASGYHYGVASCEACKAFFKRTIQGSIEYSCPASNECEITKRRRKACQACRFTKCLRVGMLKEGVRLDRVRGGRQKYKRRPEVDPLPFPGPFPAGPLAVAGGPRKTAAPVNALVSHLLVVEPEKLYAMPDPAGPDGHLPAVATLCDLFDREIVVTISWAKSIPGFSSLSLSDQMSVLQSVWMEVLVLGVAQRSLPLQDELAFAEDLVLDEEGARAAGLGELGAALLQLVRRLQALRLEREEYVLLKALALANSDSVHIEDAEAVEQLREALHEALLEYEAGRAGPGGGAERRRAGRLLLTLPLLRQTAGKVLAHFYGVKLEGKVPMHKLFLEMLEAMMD
Sequence of von Hippel-Lindau disease tumor suppressor/Steroid hormone receptor ERR1 (Homo sapiens) (P40337 whole entry, looked up): as the sequence (P40337 whole entry, looked up, other chains not shown) above

[14] = target: T8, von Hippel-Lindau disease tumor suppressor/Estrogen receptor (Homo sapiens, UniProt P03372+P40337); assay: Protac activity at ER/VHL (unknown origin) degradation in human MCF7 cells by immunoblotting analysis; format: cell-based
Target sequence in this assay (P40337 whole entry, one chain of several): as the sequence (P40337 whole entry, looked up, other chains not shown) above

[15] = target: T8, von Hippel-Lindau disease tumor suppressor/Estrogen receptor; assay: Protac activity at ER/VHL (unknown origin) degradation in human MCF7 cells assessed as maximum efficacy by immunoblotting analysis relative to control; format: cell-based
Target sequence in this assay (P40337 whole entry, looked up, one chain of several): as the sequence (P40337 whole entry, looked up, other chains not shown) above

[16] = target: T2, von Hippel-Lindau disease tumor suppressor/Bromodomain-containing protein 4; assay: Protac activity at BRD4/VHL (unknown origin)
HCT-116 = assay: Antiproliferative activity against human HCT-116 cells assessed as reduction in cell viability measured for 48 hrs by MTT assay; format: functional
[17] = target: T4, Androgen receptor (Homo sapiens); assay: Induction of AR degradation in human HeLa cells assessed as maximum efficacy at 3 nM relative to control; format: cell-based

DC50 (Androgen receptor): 10000 nM
Structure (SMILES): COc1ccc(C2=N[C@H](c3ccc(Cl)cc3)[C@H](c3ccc(Cl)cc3)N2C(=O)N2CCN(CC(=O)NCCOCCOCCOCC(=O)Nc3ccc(OC[C@](C)(O)C(=O)Nc4ccc([N+](=O)[O-])c(C(F)(F)F)c4)cc3)C(=O)C2)c(OC(C)C)c1

Activity [1]: 90% | Emax [2]: > 90% | Emax [3]: > 90% | Emax [4]: > 90%
Structure (SMILES): Cc1ncsc1-c1ccc(CNC(=O)[C@@H]2C[C@@H](O)CN2C(=O)[C@@H](NC(=O)COCCOCCOCCNC(=O)C[C@@H]2N=C(c3ccc(Cl)cc3)c3c(sc(C)c3C)-n3c(C)nnc32)C(C)(C)C)cc1

DC50 [5]: < 1 nM | Emax [6]: > 90% | Emax [4]: > 50%
Structure (SMILES): Cc1ncsc1-c1ccc([C@H](C)NC(=O)[C@@H]2C[C@@H](O)CN2C(=O)[C@@H](NC(=O)COCCCOCCNC(=O)C[C@@H]2N=C(c3ccc(Cl)cc3)c3c(sc(C)c3C)-n3c(C)nnc32)C(C)(C)C)cc1

Emax [7]: > 70% | DC50 (Estrogen receptor): 1000 nM | Emax [8]: > 80%
Structure (SMILES): CC/C(=C(\c1ccc(O)cc1)c1ccc(OCCN(C)C(=O)COCCOCCOCCOc2ccc(O[C@H]3C[C@@H](C(=O)N[C@@H]4CCCc5ccccc54)N(C(=O)[C@@H](NC(=O)[C@H](C)NC)C4CCCCC4)C3)cc2)cc1)c1ccccc1

IC50 (MV4-11): 28 nM | DC50 [9]: 6 nM | DC50 [10]: 6 nM | DC50 [11]: 11 nM | Emax [12]: 100%
Structure (SMILES): Cc1ncsc1-c1ccc(CNC(=O)[C@@H]2C[C@@H](O)CN2C(=O)[C@@H](NC(=O)C2(F)CC2)C(C)(C)C)c(OCCOc2ccc(CN3CCN(c4cc(-c5ccccc5O)nnc4N)CC3)cc2)c1

Emax [13]: > 86% | DC50 [14]: 100 nM | Emax [15]: 86%
Structure (SMILES): COc1cc(/C=C2\SC(=O)N(CCOCCC(=O)N[C@H](C(=O)N3C[C@H](O)C[C@H]3C(=O)NCc3ccc(-c4scnc4C)cc3)C(C)(C)C)C2=O)ccc1Oc1ccc(C#N)cc1C(F)(F)F

DC50 [16]: 10 nM | Emax [4]: > 90%
Structure (SMILES): CC(=O)N[C@H](C(=O)N1C[C@@H](O)C[C@H]1C(=O)NCc1ccc(-c2scnc2C)cc1)C(C)(C)SCCCCCNC(=O)C[C@@H]1N=C(c2ccc(Cl)cc2)c2c(sc(C)c2C)-n2c(C)nnc21

Structure (SMILES): COc1cc(C(=O)O)ccc1NC(=O)[C@@H]1N[C@@H](CC(C)(C)C)[C@](C#N)(c2ccc(Cl)cc2F)[C@H]1c1cccc(Cl)c1F [IDASANUTLIN]
Activity (HCT-116): 64%

Emax [17]: 50% | Emax [7]: > 70% | DC50 (Estrogen receptor): 1000 nM | Emax [8]: > 70%
Structure (SMILES): CC/C(=C(\c1ccc(O)cc1)c1ccc(OCCN(C)C(=O)COCCOCCOCCOc2cccc(C(=O)c3csc([C@@H]4CCCN4C(=O)[C@@H](NC(=O)[C@H](C)NC)C4CCCCC4)n3)c2)cc1)c1ccccc1
